In patent publication US8592172B2, “Bioluminescent assays using cyanobenzothiazole compounds” (Promega Corporation, priority 2010, dated 2013):

Key:
[1] = system: CYP450 1A2 activity in human liver microsomes; assay: Human liver microsome assay with compound 3019; conditions: 1 μg HLM, 3 μM compound 3019, 10 minutes at 37° C.
Experimental: Equal volumes of P450-Glo LDR with 6.6 mM D-Cysteine was added into the CYP450 reactions.

[2] = target: T1, glutathione S-transferase isoenzyme A1-1 (GST A1-1) (Homo sapiens, UniProt P08263); assay: Utilization of benzothiazole substrate by GST A1-1; format: biochemical; conditions: 55 minutes at room temperature
T1 sequence (P08263 1-222): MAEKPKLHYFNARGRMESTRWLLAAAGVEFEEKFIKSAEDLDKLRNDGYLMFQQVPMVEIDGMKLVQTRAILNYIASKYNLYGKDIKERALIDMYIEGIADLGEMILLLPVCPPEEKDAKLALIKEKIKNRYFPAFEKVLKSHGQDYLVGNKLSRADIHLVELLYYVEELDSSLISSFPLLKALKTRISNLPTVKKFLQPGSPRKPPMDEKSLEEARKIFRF
Experimental: (§1) Compound 934-37 was dissolved in DMSO to produce a solution approximately 1 mg/mL. This solution was diluted 1:100 (v/v) into 50 mM HEPES buffer pH 7.5 to produce a substrate solution (approximately 10 μg/ml). Twenty μL of this solution was placed in 10 wells of a 96 well, white luminometer plate (Promega part Z3291), 20 μL of a 1:3.1 dilution of the substrate (approximately 3.2 μg/ml) was placed into another 10 wells in the luminometer plate.
(§2) D-Cysteine, 4 mg (Sigma Chemical Corp.; C8005-1g, 017K1034) was dissolved into 1 mL of 50 mM HEPES buffer pH 7.5, then 4 μL added to 4 of the wells containing the substrate solution and 4 of the wells with diluted substrate solution to convert compound 934-37 to the corresponding luciferin derivative. The structures of these compounds are shown below.
A sample of glutathione S-transferase isoenzyme A1-1 (GST A1-1) (1.2 mg/mL) and 100 μL of 100 mM glutathione in water was diluted into 5 mL of 50 mM HEPES pH 7.5, then 25 μL added to the plate as follows: 2 wells with unconverted, concentrated compound 934-37; 2 wells with concentrated and converted compound 934-37; 2 wells with unconverted, diluted compound 934-37; and 2 of the wells with converted, diluted compound 934-37.
(§3) Glutathione (100 μL of 100 mM glutathione) had been diluted to 5 mL with 50 mM HEPES buffer pH 7.5, then 25 μL added to the remaining wells of converted and unconverted compound 934-37 in concentrated and diluted solution.
(§4) After 55 minutes at room temperature, 4 μL of the D-cysteine solution above was added to all wells that had not received cysteine before, then 50 μL of P450-Glo LDR was added. The plate was then placed into a GloMax luminometer (Promega Corp.), and the bioluminescence measured after 15 minutes of incubation. The values obtained were averaged, and the average value of the bioluminescence produced from the wells with no enzyme were then subtracted from the average of the bioluminescence produced in the wells with enzyme.

[3] = target: T2, GST M1-1 (Homo sapiens, UniProt P09488); assay: Utilization of benzothiazole substrate by GST M1-1; format: biochemical; conditions: 55 minutes at room temperature
T2 sequence (P09488 2-218 limits assumed): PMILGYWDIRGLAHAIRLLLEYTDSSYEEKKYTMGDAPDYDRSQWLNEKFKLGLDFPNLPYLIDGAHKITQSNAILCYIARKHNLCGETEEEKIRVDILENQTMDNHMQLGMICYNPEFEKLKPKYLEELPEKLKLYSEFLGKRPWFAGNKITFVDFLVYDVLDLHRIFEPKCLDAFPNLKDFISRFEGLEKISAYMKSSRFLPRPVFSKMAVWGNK
Experimental: as §1, §2
A sample of GST M1-1 (1.2 mg/mL) and 100 μL of 100 mM glutathione was diluted into 5 mL of 50 mM HEPES pH 7.5, then 25 μL added to: two of the wells with unconverted, concentrated compound 934-37; 2 wells with concentrated and converted compound 934-37; and two of the wells with unconverted, diluted compound 934-37 and 2 of the wells with converted, diluted compound 934-37.
as §3, §4

[4] = target: T3, UGT 1A4 (Homo sapiens, UniProt P22310); assay: Recombinant UGT panel, substrate utilization; format: biochemical; conditions: 2 hour incubation at 37° C., recombinant Supersomes
T3 construct: purchased BD Gentest; host or cells: insect cells (microsomes)
T3 sequence (P22310 29-534): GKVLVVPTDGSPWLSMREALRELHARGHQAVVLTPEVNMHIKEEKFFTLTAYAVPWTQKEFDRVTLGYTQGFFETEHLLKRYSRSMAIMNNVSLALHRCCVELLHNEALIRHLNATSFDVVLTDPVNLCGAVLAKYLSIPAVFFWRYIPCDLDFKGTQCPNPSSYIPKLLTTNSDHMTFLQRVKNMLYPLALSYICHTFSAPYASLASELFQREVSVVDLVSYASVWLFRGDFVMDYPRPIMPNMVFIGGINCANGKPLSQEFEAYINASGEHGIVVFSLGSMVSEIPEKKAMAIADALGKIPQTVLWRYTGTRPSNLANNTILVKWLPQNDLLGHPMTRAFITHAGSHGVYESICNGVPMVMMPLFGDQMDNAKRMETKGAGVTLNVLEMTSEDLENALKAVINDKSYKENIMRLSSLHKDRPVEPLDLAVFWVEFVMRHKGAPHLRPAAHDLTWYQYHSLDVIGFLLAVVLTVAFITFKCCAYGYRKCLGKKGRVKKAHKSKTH
Experimental: (§5) During this incubation, the cysteine reacts with the cyanobenzathiozole substrate to yield a D-luciferin derivative. […] Therefore, activity of the UGT enzyme can be measured by analyzing the difference (lower or no output) in relative light units (RLU) of a sample in which glucuronidation occurs compared to a sample that was run under the same conditions with no added UDPGA cofactor.
(§6) In this example, a series of 12 recombinant UGTs expressed in insect microsomes (Supersomes™, BD Gentest™), as well as the control microsomes not expressing the UGT enzyme, were incubated with compound 3138, compound 3478, or compound 3165 as substrates, with or without the UDPGA co-factor.
(§7) After addition of a luciferin detection reagent (LDR) containing D-cysteine, both the substrate and the product were converted to D-luciferins (compound 3478 is already a luciferin derivative before addition of the LDR).
(§8) Reactions were assembled in a white, 96-well plate. Each well contained 20 μL of reaction mixture comprised of 100 mM TES, pH 7.5, 16 mM MgCl2, 50 μg/mL alamethicin (Sigma), 60 μM compound 3138 or compound 3478, and 0.4 mg/mL of control or recombinant UGT membranes. The reactions were initiated by addition of 20 μL of water or 8 mM triammonium UDPGA (Sigma) to each well. The plate was mixed, sealed, and incubated in a 37° C. water bath for 2 hours. After the incubation, 40 μL P450-Glo LDR (Promega) with 20 mM D-cysteine-HCl.H2O (Sigma) was added to each well, the plate was mixed and allowed to incubate at room temperature for 20 minutes. After the incubation was completed, the plate was read on a Veritas™ luminometer (Turner BioSystems, Inc.; Sunnyvale, Calif.).
(§9) For each isozyme, the bioluminescence from the replicates containing UDPGA were subtracted from the average bioluminescence of the replicates without UDPGA. The average Δ RLU value obtained and the standard deviation of the replicates were then divided by the average bioluminescence for samples without UDPGA to obtain the % utilization for each isozyme. The % utilization obtained from the control microsomes was then subtracted from each isozyme to give the background corrected utilization data for those isozymes.

[5] = target: T4, UGT 2B4 (Homo sapiens, UniProt P06133); assay: Recombinant UGT panel, substrate utilization; format: biochemical; conditions: 2 hour incubation at 37° C., recombinant Supersomes
T4 construct: purchased BD Gentest; host or cells: insect cells (microsomes)
Experimental: as §5, §6, §7, §8, §9

[6] = target: T5, UGT 1A8 (Homo sapiens, UniProt Q9HAW9); assay: Recombinant UGT panel, substrate utilization; format: biochemical; conditions: 2 hour incubation at 37° C., recombinant Supersomes, background corrected
T5 construct: purchased BD Gentest; host or cells: insect cells (microsomes)
Experimental: as §5, §6, §7, §8, §9

[7] = target: T6, UGT 1A6 (Homo sapiens, UniProt P19224); assay: Recombinant UGT panel, substrate utilization; format: biochemical; conditions: 2 hour incubation at 37° C., recombinant Supersomes
T6 construct: purchased BD Gentest; host or cells: insect cells (microsomes)
Experimental: as §5, §6, §7, §8, §9

[8] = target: T7, UGT 1A10 (Homo sapiens, UniProt Q9HAW8); assay: Recombinant UGT panel, substrate utilization; format: biochemical; conditions: 2 hour incubation at 37° C., recombinant Supersomes, background corrected
T7 construct: purchased BD Gentest; host or cells: insect cells (microsomes)
Experimental: as §5, §6, §7, §8, §9

[9] = target: T8, UGT 1A1 (Homo sapiens, UniProt P22309); assay: Recombinant UGT panel, substrate utilization; format: biochemical; conditions: 2 hour incubation at 37° C., recombinant Supersomes, background corrected
T8 construct: purchased BD Gentest; host or cells: insect cells (microsomes)
T8 sequence (P22309 26-533): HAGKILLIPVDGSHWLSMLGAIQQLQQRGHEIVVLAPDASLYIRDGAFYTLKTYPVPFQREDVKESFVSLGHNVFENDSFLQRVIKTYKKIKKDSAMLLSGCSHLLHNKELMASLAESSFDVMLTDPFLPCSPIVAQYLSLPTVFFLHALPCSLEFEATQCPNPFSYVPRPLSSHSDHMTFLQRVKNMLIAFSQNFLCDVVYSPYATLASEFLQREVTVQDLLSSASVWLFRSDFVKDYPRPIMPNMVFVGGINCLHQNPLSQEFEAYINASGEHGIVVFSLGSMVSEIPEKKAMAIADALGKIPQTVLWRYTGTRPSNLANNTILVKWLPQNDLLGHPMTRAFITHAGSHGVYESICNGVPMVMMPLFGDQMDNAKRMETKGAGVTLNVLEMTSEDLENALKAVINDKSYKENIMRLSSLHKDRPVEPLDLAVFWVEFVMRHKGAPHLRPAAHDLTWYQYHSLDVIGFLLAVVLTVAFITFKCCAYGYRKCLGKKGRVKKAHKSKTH
Experimental: as §5, §6, §7, §8, §9

[10] = target: T9, UGT 1A9 (Homo sapiens, UniProt O60656); assay: Recombinant UGT panel, substrate utilization; format: biochemical; conditions: 2 hour incubation at 37° C., recombinant Supersomes, background corrected
T9 construct: purchased BD Gentest; host or cells: insect cells (microsomes)
T9 sequence (O60656 26-530): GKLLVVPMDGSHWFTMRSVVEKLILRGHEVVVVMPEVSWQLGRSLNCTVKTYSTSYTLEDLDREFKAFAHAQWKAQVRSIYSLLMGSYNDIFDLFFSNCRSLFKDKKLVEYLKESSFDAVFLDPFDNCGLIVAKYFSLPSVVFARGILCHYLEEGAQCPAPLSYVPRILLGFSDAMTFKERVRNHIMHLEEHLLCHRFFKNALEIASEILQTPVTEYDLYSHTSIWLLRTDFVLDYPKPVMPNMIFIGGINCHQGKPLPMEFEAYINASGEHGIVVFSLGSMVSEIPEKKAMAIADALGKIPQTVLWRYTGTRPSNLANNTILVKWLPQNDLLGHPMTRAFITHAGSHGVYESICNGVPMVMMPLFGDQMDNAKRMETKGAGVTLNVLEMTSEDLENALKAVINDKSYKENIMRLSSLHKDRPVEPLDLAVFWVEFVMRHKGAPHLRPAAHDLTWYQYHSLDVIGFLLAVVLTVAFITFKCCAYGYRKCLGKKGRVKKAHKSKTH
Experimental: as §5, §6, §7, §8, §9

[11] = target: UGT 2B7 (Homo sapiens, UniProt P16662); assay: Recombinant UGT panel, substrate utilization; format: biochemical; parameters: purchased BD Gentest; host or cells: insect cells (microsomes); conditions: 2 hour incubation at 37° C., recombinant Supersomes, background corrected
Experimental: as §5, §6, §7
Reactions were assembled in a white, 96-well plate. Each well contained 20 μL of reaction mixture comprised of 100 mM TES, pH 7.5, 16 mM MgCl2, 50 μg/mL alamethicin (Sigma), 60 μM compound 3138 or compound 3478, and 0.4 mg/mL of control or recombinant UGT membranes. The reactions were initiated by addition of 20 μL of water or 8 mM triammonium UDPGA (Sigma) to each well. […] After the incubation was completed, the plate was read on a Veritas™ luminometer (Turner BioSystems, Inc.; Sunnyvale, Calif.). […]

[12] = system: UGT isozymes; conditions: UGT isozymes currently reported in the literature; cited from earlier work
[13] = concentrated substrate (approximately 10 μg/ml)
[14] = diluted substrate (approximately 3.2 μg/ml)

T4 sequence (P06133 24-528): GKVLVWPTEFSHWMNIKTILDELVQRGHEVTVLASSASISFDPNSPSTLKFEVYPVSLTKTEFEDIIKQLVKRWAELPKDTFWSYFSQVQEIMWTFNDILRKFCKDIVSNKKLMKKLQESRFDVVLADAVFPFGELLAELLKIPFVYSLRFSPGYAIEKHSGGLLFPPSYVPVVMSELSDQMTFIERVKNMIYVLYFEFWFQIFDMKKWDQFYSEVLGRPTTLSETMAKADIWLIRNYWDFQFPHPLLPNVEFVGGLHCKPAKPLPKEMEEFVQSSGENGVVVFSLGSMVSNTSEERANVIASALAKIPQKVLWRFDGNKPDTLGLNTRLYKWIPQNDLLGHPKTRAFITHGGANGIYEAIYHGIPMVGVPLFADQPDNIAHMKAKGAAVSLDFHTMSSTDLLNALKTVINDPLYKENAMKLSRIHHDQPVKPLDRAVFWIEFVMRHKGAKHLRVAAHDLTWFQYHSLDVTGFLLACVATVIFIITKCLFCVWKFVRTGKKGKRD
T6 sequence (P19224 27-532): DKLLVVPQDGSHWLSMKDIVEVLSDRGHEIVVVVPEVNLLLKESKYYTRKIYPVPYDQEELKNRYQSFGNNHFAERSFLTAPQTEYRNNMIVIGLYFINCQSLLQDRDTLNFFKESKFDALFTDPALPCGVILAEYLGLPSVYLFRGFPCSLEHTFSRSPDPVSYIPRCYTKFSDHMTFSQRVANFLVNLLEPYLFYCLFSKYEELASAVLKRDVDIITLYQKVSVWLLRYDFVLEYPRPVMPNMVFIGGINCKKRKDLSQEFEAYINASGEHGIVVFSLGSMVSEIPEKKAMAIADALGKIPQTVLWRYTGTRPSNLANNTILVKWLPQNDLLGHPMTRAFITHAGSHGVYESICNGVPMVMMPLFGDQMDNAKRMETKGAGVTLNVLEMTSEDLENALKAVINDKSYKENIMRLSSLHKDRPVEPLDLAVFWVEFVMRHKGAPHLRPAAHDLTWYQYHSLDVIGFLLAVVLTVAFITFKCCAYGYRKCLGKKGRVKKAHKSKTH
T5 sequence (Q9HAW9 26-530): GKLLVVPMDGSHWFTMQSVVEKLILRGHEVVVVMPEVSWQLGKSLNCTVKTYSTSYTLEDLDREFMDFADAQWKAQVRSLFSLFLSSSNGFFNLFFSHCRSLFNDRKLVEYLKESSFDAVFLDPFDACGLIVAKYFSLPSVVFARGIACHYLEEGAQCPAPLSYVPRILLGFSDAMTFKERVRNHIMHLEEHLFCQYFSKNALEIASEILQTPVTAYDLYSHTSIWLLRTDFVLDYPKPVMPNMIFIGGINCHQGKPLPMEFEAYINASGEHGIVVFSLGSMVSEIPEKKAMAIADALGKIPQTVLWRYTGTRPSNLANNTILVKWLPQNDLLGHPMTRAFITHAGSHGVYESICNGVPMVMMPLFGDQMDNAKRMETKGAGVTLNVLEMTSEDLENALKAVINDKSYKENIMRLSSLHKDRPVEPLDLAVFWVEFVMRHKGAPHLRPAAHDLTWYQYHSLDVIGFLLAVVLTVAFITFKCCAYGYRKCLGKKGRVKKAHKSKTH
T7 sequence (Q9HAW8 26-530): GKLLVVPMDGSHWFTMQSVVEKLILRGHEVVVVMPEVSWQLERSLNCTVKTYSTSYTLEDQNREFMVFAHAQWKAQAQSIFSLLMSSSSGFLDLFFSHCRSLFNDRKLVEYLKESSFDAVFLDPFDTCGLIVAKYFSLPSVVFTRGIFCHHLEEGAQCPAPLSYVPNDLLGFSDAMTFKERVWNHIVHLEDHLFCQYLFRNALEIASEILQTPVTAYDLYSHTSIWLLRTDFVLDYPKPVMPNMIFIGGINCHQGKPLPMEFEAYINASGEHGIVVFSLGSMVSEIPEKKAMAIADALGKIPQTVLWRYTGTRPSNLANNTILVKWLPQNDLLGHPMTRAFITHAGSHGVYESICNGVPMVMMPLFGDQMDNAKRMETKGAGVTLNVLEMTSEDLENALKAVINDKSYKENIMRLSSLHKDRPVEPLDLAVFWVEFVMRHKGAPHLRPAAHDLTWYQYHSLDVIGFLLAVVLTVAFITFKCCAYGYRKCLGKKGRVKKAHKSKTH
UGT 2B7, sequence (P16662 24-529): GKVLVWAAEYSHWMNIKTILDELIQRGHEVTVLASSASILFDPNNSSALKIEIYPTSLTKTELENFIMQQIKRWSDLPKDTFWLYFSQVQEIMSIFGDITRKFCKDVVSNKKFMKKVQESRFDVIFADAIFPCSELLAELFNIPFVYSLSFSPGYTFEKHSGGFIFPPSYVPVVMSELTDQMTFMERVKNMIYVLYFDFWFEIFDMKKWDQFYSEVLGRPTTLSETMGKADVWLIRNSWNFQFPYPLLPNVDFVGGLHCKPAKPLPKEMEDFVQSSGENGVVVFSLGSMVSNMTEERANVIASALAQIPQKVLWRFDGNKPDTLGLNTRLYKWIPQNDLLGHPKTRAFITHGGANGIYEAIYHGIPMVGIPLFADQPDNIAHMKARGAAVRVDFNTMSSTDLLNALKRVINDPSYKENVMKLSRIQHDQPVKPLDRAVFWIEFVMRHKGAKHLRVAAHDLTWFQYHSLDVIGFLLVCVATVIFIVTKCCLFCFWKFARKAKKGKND

O=c1cc(-c2ccccc2)oc2c1ccc1ccccc12 [α-naphthoflavone, reference compound]
inhibition of compound 3019 activity in human liver microsomes [1]: sensitive to inhibition

Cc1cc(S(=O)(=O)Oc2ccc3nc(C4=N[C@@H](C(=O)O)CS4)sc3c2)ccc1[N+](=O)[O-] [converted compound 934-37]
bioluminescence with GST A1-1 minus no enzyme [2, 13]: 6,410 RLU | bioluminescence with GST A1-1 minus no enzyme [2, 14]: 6,462 RLU | bioluminescence with GST M1-1 minus no enzyme [3, 13]: 315,759 RLU | bioluminescence with GST M1-1 minus no enzyme [3, 14]: 213,920 RLU

Cc1cc(O)cc2sc(C3=NC(C(=O)O)CS3)nc12 (centres unmarked) [Compound 3478]
utilization of substrate by UGT 1A4 [4]: did not utilize either compound 3138 or 3478 to an appreciable extent | utilization of substrate by UGT 2B4 [5]: did not utilize either compound 3138 or 3478 to an appreciable extent | % utilization of substrate by UGT 1A8 [6]: ≤ 15% | utilization of substrate by UGT 1A6 [7]: able to utilize compound 3478 to any appreciable extent | % utilization of substrate by UGT 1A10 [8]: ≤ 15% | % utilization of substrate by UGT 1A1 [9]: ≤ 15% | % utilization of substrate by UGT 1A9 [10]: ≤ 15% | % utilization of substrate by UGT 2B7 [11]: ≤ 15%

Cc1cc(S(=O)(=O)Oc2ccc3nc(C#N)sc3c2)ccc1[N+](=O)[O-] [Compound 934-37]
bioluminescence with GST A1-1 minus no enzyme [2, 13]: 164,400 RLU | bioluminescence with GST A1-1 minus no enzyme [2, 14]: 195,021 RLU | bioluminescence with GST M1-1 minus no enzyme [3, 13]: 41,212 RLU | bioluminescence with GST M1-1 minus no enzyme [3, 14]: 30,428 RLU

O=c1ccc2ccc(O)cc2o1 [Umbelliferne]
Isozymes Modulated [12]: Substrate of most isozymes

O=c1cc(C(F)(F)F)c2ccc(O)cc2o1 [7-hydroxy-4-trifluoromethyl coumarin]
Isozymes Modulated [12]: Substrate for 1A1, 1A3, 1A6, 1A9, 2B7

C=C[C@H]1C[N@@]2CC[C@H]1C[C@@H]2[C@@H](O)c1ccnc2ccc(OC)cc12 [Quinidine]
Isozymes Modulated [12]: 2B7 and 2B15, others to a lesser extent
